Data: patent US5723439A (priority 1991, dated 1998)

System: influenza A/Aichi/2/68 (H3N2) virus
Assay type: in vivo, mice
Conditions: intraperitoneal 15,000 KIU/mouse/day, 5-6 injections daily for 7 days

Substance: aprotinin
- protective effect (survival): 30%
